Assay results taken from ChEMBL document CHEMBL4257547, “Chemical modulation of transcription factors” (Medchemcomm, 2018).
Blank lines part the entries; values can stand above or below the molecule they belong to.

Key:
[1] = target: Mitogen-activated protein kinase kinase kinase 14 (Homo sapiens, UniProt Q99558); test: Inhibition of NIK (unknown origin) by HTRF method
Homo sapiens = organism: Homo sapiens; test: Selectivity ratio of IC50 for inhibition of recombinant His6-tagged human Max homodimer/HEX-tagged double-stranded oligonucleotide complex formation to IC50 for inhibition of recombinant His6-tagged bHLH-LZ domain of human Myc/His6-tagged human Max/HEX-tagged double-stranded oligonucleotide complex formation
[2] = target: Bromodomain-containing protein 4 (Homo sapiens, UniProt O60885); test: Inhibition of human His-tagged BRD4 expressed in Escherichia coli BL21(DE3)-R3-pRARE2 cells preincubated for 30 mins followed by biotinylated acetyl-histone addition and measured after 30 mins by AlphaScreen method
B16-F10 = test: Cytotoxicity against mouse B16F10 cells assessed as decrease in cell viability after 24 hrs by MTT assay; type: functional, cell-based; conditions: B16-F10, 24 h
[3] = Protein binding in mouse plasma after 4 hrs by rapid equilibrium dialysis method; type: ADME, cell-free; conditions: read-out: PPB
[4] = Inhibition of [32P]-labeled CREB KID (unknown origin) binding to GST-fused mouse CBP KIX domain preincubated with GST-fused CBP for 15 mins followed by CREB addition and measured after 30 mins by SDS-gel electrophoresis/autoradiographic method; set-up: species or system Homo sapiens

Mitogen-activated protein kinase kinase kinase 14, sequence (Q99558 whole entry, the tested form may be a part): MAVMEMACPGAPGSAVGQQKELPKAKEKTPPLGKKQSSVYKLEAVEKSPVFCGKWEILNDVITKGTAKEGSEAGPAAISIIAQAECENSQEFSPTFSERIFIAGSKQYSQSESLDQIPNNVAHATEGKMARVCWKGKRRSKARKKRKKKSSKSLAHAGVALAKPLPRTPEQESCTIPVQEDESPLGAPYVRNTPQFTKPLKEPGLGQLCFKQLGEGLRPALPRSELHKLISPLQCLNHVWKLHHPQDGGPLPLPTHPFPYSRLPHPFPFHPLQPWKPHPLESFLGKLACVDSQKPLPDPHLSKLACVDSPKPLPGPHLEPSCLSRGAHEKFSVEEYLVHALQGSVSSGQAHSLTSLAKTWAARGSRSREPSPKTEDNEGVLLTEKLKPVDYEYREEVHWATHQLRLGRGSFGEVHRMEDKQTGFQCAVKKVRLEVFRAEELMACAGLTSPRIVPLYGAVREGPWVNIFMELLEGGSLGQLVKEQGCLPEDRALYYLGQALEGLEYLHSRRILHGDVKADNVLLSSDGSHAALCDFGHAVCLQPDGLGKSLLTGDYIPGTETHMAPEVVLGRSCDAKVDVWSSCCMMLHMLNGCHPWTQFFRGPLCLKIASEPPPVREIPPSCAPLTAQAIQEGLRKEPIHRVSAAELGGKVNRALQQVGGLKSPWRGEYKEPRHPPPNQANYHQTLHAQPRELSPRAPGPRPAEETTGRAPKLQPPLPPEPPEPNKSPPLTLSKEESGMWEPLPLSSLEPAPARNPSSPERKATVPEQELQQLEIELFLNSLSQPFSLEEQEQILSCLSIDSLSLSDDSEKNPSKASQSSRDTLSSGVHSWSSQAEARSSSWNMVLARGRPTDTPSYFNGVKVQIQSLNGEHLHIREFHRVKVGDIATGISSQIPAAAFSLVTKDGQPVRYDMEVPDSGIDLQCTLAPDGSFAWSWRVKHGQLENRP

SMILES: CC(C)(O)/C=C/C(=O)[C@@](C)(O)[C@H]1C(O)C[C@@]2(C)[C@@H]3CC=C4[C@@H](C=C(O)C(=O)C4(C)C)[C@]3(C)CC[C@]12C (some centres not stated)
IC50 (B16-F10): 10 µM

SMILES: O=C(Nc1ccc(Cl)cc1)c1cc2ccccc2cc1OP(=O)(O)O
IC50 [4]: 90 µM

SMILES: Cc1nnn2c1-c1ccc(-c3cc[nH]n3)cc1C(c1ccc(Cl)cc1)=NC2
IC50 [2]: 2 nM

Further lines, results first:

Ki [1]: 0.3 nM
SMILES: C[C@](O)(C#Cc1ccc2ncc(-c3nc(N)ncc3Cl)n2c1)c1nccs1

Ratio IC50 (Homo sapiens): 2
SMILES: COC(=O)c1ccc(Nc2ccc([N+](=O)[O-])c3nonc23)c(-c2ccc(C)cc2)c1

IC50 [2]: 6 nM
SMILES: Cc1nnn2c1-c1ccc(-c3ccc(N)nc3)cc1C(c1ccc(Cl)cc1)=NC2

fraction unbound at 4 h [3]: < 0.001
SMILES: COc1ccc(C2=Nn3c(nnc3-c3cc(-c4ccc(Cl)cc4)n[nH]3)SC2C)cc1 (configuration not stated)
